These are literature values, as cited in PMC10126514, “The interaction of peptide inhibitors and Aβ protein: Binding mode analysis, inhibition of the formation of Aβ aggregates, and then exert neuroprotective effects” (Frontiers in Aging Neuroscience, 2023).

Data set [1] deals with rat primary cortical neurons. The arrangement: method as in Pradhan et al., 2019. Particulars: ref Pradhan et al., 2019; cited from earlier work.
The conditions of data set [2]: ref Wang et al., 2019, Behl et al., 2020, Tolar et al.; cited from earlier work.

As to Ser-Leu-Lys-Pro [SLKP, tetrapeptide], in data set [1], the Neurite growth result is given as “promoted significant neurite growth” and the “Neuroprotection against Aβ-mediated toxicity” value is recorded as “significant neuroprotection against Aβ-mediated toxicity”.
Regarding `CCN(C)C(=O)Oc1cccc([C@H](C)N(C)C)c1` [rivastigmine], the Potential side effects result in data set [2] is “Diarrhea, vomiting, nausea, and abdominal cramps”.
